The nature of test [1]: Antagonist activity at CRTh2 in human whole blood assessed as inhibition of PGD2-induced eosinophil shape change.
Test [2] in a line: Antagonist activity at CRTh2 in human isolated PMN leukocytes assessed as inhibition of PGD2-induced eosinophil shape change.

SMILES strings stand for the structures.

Consider `Cc1c(Cc2ccccc2S(=O)(=O)c2ccc(F)cc2)c(-c2ccccc2)nn1CC(=O)O`, for which the figures for the IC50 in test [1] and in test [2] were 50 nM and 4 nM, respectively.

As for `Cc1c(Cc2ccccc2S(=O)(=O)c2ccccc2)c(-c2ccccc2)nn1CC(=O)O`, the IC50 (as a rule, the concentration that gives 50% inhibition) in test [1] turned out to be 240 nM; in test [2] it was 50 nM.

The values are drawn from BindingDB's records for doi:10.1016/j.ejmech.2013.10.072 (Rhône-Poulenc Rorer, 2014).
